# US11903387B2 (priority 2016, dated 2024)
# Where “and” joins values, the source holds several entries; their conditions need not be identical. Identical values can stand only once. Like-named read-outs stand apart in the source and are kept apart here.
# Key:
# [1] = tested on: Pseudoperonospora cubensis; assay: Test 2: control effect against cucumber downy mildew; format: in vivo; conditions: for pest or weed control at 20 ppm: component (b) alone 20 ppm; for pest or weed control at 100 ppm: component (b) alone 100 ppm; for pest or weed control at 500 ppm: component (b) alone 500 ppm
# Phytophthora infestans = assay: whole plant or invertebrate; format: in vivo; conditions: for Test 1 preventive value, Measured: applied alone; for pest or weed control at 2 ppm / pest or weed control at 10 ppm / pest or weed control at 50 ppm / pest or weed control at 20 ppm / pest or weed control at 100 ppm / pest or weed control at 500 ppm: Phytophthora infestans, in Solanum lycopersicum; for pest or weed control at 20 ppm: read-out: Test 1 Measured, component (b) alone 20 ppm; for pest or weed control at 100 ppm: read-out: Test 1 Measured, component (b) alone 100 ppm; for pest or weed control at 500 ppm: read-out: Test 1 Measured, component (b) alone 500 ppm
# [2] = Pseudoperonospora cubensis, read-out: Test 2 Measured
compound,measurement,setting,value
COc1cc(C)c(C(=O)c2c(OC)ncc(Cl)c2C)c(OC)c1OC [Pyriofenone],Test 2 Measured,[1]; component (b) alone 250 ppm,10
same,Test 2 Measured,"[1]; component (b) alone, 10 ppm",0
same,Test 2 Measured,"[1]; component (b) alone, 50 ppm",5
same,"Test 1 preventive value, Measured",Phytophthora infestans; 10 ppm,0.0
same,"Test 1 preventive value, Measured",Phytophthora infestans; 50 ppm,0.0
same,"Test 1 preventive value, Measured",Phytophthora infestans; 250 ppm,0.0
CCCCCCCCc1c(CC)nc2ncnn2c1N [Ametoctradin],Test 2 Measured,"[1]; component (b) alone, 0.4 ppm",77.5
same,Test 2 Measured,"[1]; component (b) alone, 2 ppm",95
same,Test 2 Measured,"[1]; component (b) alone, 10 ppm",98.8
same,Test 1 Measured,"Phytophthora infestans; component (b) alone, 0.4 ppm",0.0
same,Test 1 Measured,"Phytophthora infestans; component (b) alone, 2 ppm",18.3
same,Test 1 Measured,"Phytophthora infestans; component (b) alone, 10 ppm",95.7
CC(=O)Oc1c(C)c(C)nc2c(F)cc(C(C)(C)C)cc12 [Tebufloquin],Test 2 Measured,[1]; component (b) alone 4 ppm,0
same,Test 2 Measured,"[1]; component (b) alone, 20 ppm",0
same,Test 2 Measured,"[1]; component (b) alone, 100 ppm",0
same,Test 1 Measured,Phytophthora infestans; component (b) alone 4 ppm,0.0
same,Test 1 Measured,"Phytophthora infestans; component (b) alone, 20 ppm",0.0
same,Test 1 Measured,"Phytophthora infestans; component (b) alone, 100 ppm",46.7
Cc1cc(C(F)(F)F)nn1CC(=O)N1CCC(c2nc(C3=NOC(c4c(F)cccc4F)C3)cs2)CC1 (stereo not shown) [Oxathiapiprolin],Test 2 Measured,[1]; component (b) alone 0.0024 ppm,40
same,Test 2 Measured,[1]; component (b) alone 0.012 ppm,99
same,Test 2 Measured,[1]; component (b) alone 0.06 ppm,100
same,Test 1 Measured,Phytophthora infestans; component (b) alone 0.0024 ppm,60.2
same,Test 1 Measured,Phytophthora infestans; component (b) alone 0.012 ppm,95
same,Test 1 Measured,Phytophthora infestans; component (b) alone 0.06 ppm,100
O=C1C2CC=CCC2C(=O)N1SC(Cl)(Cl)Cl (stereo not shown) [Captan],pest or weed control at 2 ppm,"[1]; Pseudoperonospora cubensis, component (b) alone, 2 ppm, read-out: Test 2 Measured",90.1%
same,pest or weed control at 10 ppm,"[1]; Pseudoperonospora cubensis, component (b) alone, 10 ppm, read-out: Test 2 Measured",99%
same,pest or weed control at 50 ppm,"[1]; Pseudoperonospora cubensis, component (b) alone, 50 ppm, read-out: Test 2 Measured",99%
same,Test 2 Measured preventive value,"[1]; component (b) alone, 2 ppm",96 and 100
same,Test 2 Measured preventive value,"[1]; component (b) alone, 10 ppm",99.3
same,Test 2 Measured preventive value,"[1]; component (b) alone, 50 ppm",100 and 96
same,pest or weed control at 2 ppm,"Phytophthora infestans; read-out: Test 1 Measured preventive value, component (b) alone, 2 ppm",5%
same,pest or weed control at 10 ppm,"Phytophthora infestans; read-out: Test 1 Measured preventive value, component (b) alone, 10 ppm",71.7%
same,pest or weed control at 50 ppm,"Phytophthora infestans; read-out: Test 1 Measured preventive value, component (b) alone, 50 ppm",93.8%
same,pest or weed control at 2 ppm,"Phytophthora infestans; read-out: Test 1 Measured, component (b) alone, 2 ppm",10%
same,pest or weed control at 10 ppm,"Phytophthora infestans; read-out: Test 1 Measured, component (b) alone, 10 ppm",64.5%
same,pest or weed control at 50 ppm,"Phytophthora infestans; read-out: Test 1 Measured, component (b) alone, 50 ppm",90%
CC(C)NC(=O)N1CC(=O)N(c2cc(Cl)cc(Cl)c2)C1=O [Iprodione],pest or weed control at 20 ppm,[1]; [2],0%
same,pest or weed control at 100 ppm,[1]; [2],0%
same,pest or weed control at 500 ppm,[1]; [2],0%
same,pest or weed control at 20 ppm,Phytophthora infestans,0%
same,pest or weed control at 100 ppm,Phytophthora infestans,0%
same,pest or weed control at 500 ppm,Phytophthora infestans,5%
CC(C)(C)C(O)(CCc1ccc(Cl)cc1)Cn1cncn1 (stereo not shown) [Tebuconazole],pest or weed control at 20 ppm,[1]; [2],0%
same,pest or weed control at 100 ppm,[1]; [2],10%
same,pest or weed control at 500 ppm,[1]; [2],97%
same,pest or weed control at 20 ppm,Phytophthora infestans,0%
same,pest or weed control at 100 ppm,Phytophthora infestans,0%
same,pest or weed control at 500 ppm,Phytophthora infestans,16.7%
Cc1cc(C2CC2)nc(Nc2ccccc2)n1 [Cyprodinil],pest or weed control at 20 ppm,[1]; [2],0%
same,pest or weed control at 100 ppm,[1]; [2],0%
same,pest or weed control at 20 ppm,Phytophthora infestans,0%
same,pest or weed control at 100 ppm,Phytophthora infestans,0%
same,pest or weed control at 500 ppm,Phytophthora infestans,0%
Mancozeb,Test 2 Measured,"[1]; component (b) alone, 2 ppm",33
same,Test 2 Measured,"[1]; component (b) alone, 10 ppm",100
same,Test 2 Measured preventive value,"[1]; component (b) alone, 10 ppm",99
same,Test 2 Measured,"[1]; component (b) alone, 50 ppm",100
same,Test 2 Measured preventive value,"[1]; component (b) alone, 50 ppm",100
same,Test 1 Measured,"Phytophthora infestans; component (b) alone, 2 ppm",21.8
same,Test 1 Measured preventive value,"Phytophthora infestans; component (b) alone, 2 ppm",11.7
same,Test 1 Measured,"Phytophthora infestans; component (b) alone, 10 ppm",80.5
same,Test 1 Measured preventive value,"Phytophthora infestans; component (b) alone, 10 ppm",84.2
same,Test 1 Measured,"Phytophthora infestans; component (b) alone, 50 ppm",100.0
same,Test 1 Measured preventive value,"Phytophthora infestans; component (b) alone, 50 ppm",100.0
O=[N+]([O-])c1cc(C(F)(F)F)c(Cl)c([N+](=O)[O-])c1Nc1ncc(C(F)(F)F)cc1Cl [Fluazinam],pest or weed control at 0.4 ppm,"[1]; Pseudoperonospora cubensis, applied alone, 0.4 ppm, read-out: Test 2 preventive value, Measured",0%
same,pest or weed control at 2 ppm,"[1]; Pseudoperonospora cubensis, applied alone, 2 ppm, read-out: Test 2 preventive value, Measured",90.8%
same,pest or weed control at 10 ppm,"[1]; Pseudoperonospora cubensis, applied alone, 10 ppm, read-out: Test 2 preventive value, Measured",100%
same,pest or weed control at 2 ppm,"Phytophthora infestans; read-out: Test 1 preventive value, Measured, applied alone, 2 ppm",0%
same,pest or weed control at 10 ppm,"Phytophthora infestans; read-out: Test 1 preventive value, Measured, applied alone, 10 ppm",16.7%
same,pest or weed control at 50 ppm,"Phytophthora infestans; read-out: Test 1 preventive value, Measured, applied alone, 50 ppm",60.8%
